According to ChEMBL document CHEMBL1770089, “Synthesis, structure-activity relationship of novel substituted 4H-chromen-1,2,3,4-tetrahydropyrimidine-5-carboxylates as potential anti-mycobacterial and anticancer agents” (2011):
≈ marks a conversion by molar mass, not a printed value. Calls of active or inactive are those of the source. The rule behind the calls is not given here.

Experiments:
Assay type in all cases: functional
[1] = test system: HeLa; assay: Cytotoxicity against human HeLa cells after 48 hrs by MTT assay; design: concentration or dose not given beside the values
[2] = test system: A549; assay: Cytotoxicity against human A549 cells after 48 hrs by MTT assay; design: concentration or dose not given beside the values
[3] = test system: Mycobacterium tuberculosis; assay: Antituberculosis activity against Mycobacterium tuberculosis H37Rv by agar dilution method
[4] = test system: SK-N-SH; assay: Cytotoxicity against human SK-N-SH cells after 48 hrs by MTT assay; design: concentration or dose not given beside the values

Structure (SMILES)	Activity [1]	Activity [2]	MIC [3]	Activity [4]
CCOC(=O)C1=C(C)NC(=O)NC1c1coc2cc3occc3cc2c1=O (stereo not given)	51.5%	29.6%	34 µM (≈ 12.5 µg/mL)	37.5%
CCOC(=O)C1=C(C)NC(=O)NC1c1coc2ccc(C)cc2c1=O (stereo not given)	16.6%	24.8%	36.5 µM (≈ 12.5 µg/mL)	1.7%
COCCOC(=O)C1=C(C)NC(=O)NC1c1coc2ccc(-c3ccccc3)cc2c1=O (stereo not given)	33.5%	34.4%	57.6 µM (≈ 25 µg/mL)	13.4%
CCOC(=O)C1=C(c2ccccc2)NC(=O)NC1c1coc2ccc(C)cc2c1=O (stereo not given)	29.8%	18.6%	30.9 µM (≈ 12.5 µg/mL)	inactive
CCOC(=O)C1=C(C)NC(=O)NC1c1coc2c(ccc3occc32)c1=O (stereo not given)	42.4%	33.8%	34 µM (≈ 12.5 µg/mL)	inactive
COCCOC(=O)C1=C(C)NC(=S)NC1c1coc2ccc(C)cc2c1=O (stereo not given)	17.4%	21.2%	32.2 µM (≈ 12.5 µg/mL)	22.8%
CCOC(=O)C1=C(C)NC(=O)NC1c1coc2ccccc2c1=O (stereo not given)	16.6%	18.1%	76.2 µM (≈ 25 µg/mL)	19%
COCCOC(=O)C1=C(C)NC(=S)NC1c1coc2ccccc2c1=O (stereo not given)	inactive	inactive	66.8 µM (≈ 25 µg/mL)	inactive
CCOC(=O)C1=C(C)NC(=O)NC1c1coc2ccc(-c3ccco3)cc2c1=O (stereo not given)	35.4%	34.5%	15.9 µM (≈ 6.25 µg/mL)	46.4%
COc1cccc2c1C(=O)c1c(O)c3c(c(O)c1C2=O)C[C@@](O)(C(=O)CO)C[C@@H]3O[C@H]1C[C@H](N)[C@H](O)[C@H](C)O1 [DOXORUBICIN]	86.5%	55%		31.8%
CCOC(=O)C1=C(c2ccccc2)NC(=O)NC1c1coc2ccc(-c3ccccc3)cc2c1=O (stereo not given)	inactive	inactive	25.9 µM (≈ 12.1 µg/mL)	inactive
CC[C@@H](CO)NCCN[C@@H](CC)CO [ETHAMBUTOL]			7.63 µM (≈ 1.56 µg/mL)	
CCOC(=O)C1=C(C(F)(F)F)NC(=O)NC1c1coc2ccc(C)cc2c1=O (stereo not given)	33.5%	37.4%	7.86 µM (≈ 3.12 µg/mL)	45.5%
CCOC(=O)C1=C(C(F)(F)F)NC(=O)NC1c1coc2c(ccc3occc32)c1=O (stereo not given)	32.8%	27.5%	3.67 µM (≈ 1.55 µg/mL)	34.3%
CCOC(=O)C1=C(c2ccccc2)NC(=O)NC1c1coc2c(ccc3occc32)c1=O (stereo not given)	43.3%	33.3%	14.5 µM (≈ 6.25 µg/mL)	39.4%
CCOC(=O)C1=C(CCl)NC(=O)NC1c1coc2ccc(C)cc2c1=O (stereo not given)	81.4%	46.2%	16.6 µM (≈ 6.26 µg/mL)	55.3%
O=C(O)c1cn(C2CC2)c2cc(N3CCNCC3)c(F)cc2c1=O [CIPROFLOXACIN]			9.44 µM (≈ 3.13 µg/mL)	
CCOC(=O)C1=C(C)NC(=O)NC1c1coc2c([N+](=O)[O-])cccc2c1=O (stereo not given)	60.6%	47.6%	4.18 µM (≈ 1.56 µg/mL)	56%
CCOC(=O)C1=C(CCl)NC(=O)NC1c1coc2ccccc2c1=O (stereo not given)	23.3%	30.7%	34.5 µM (≈ 12.5 µg/mL)	18.6%
CCOC(=O)C1=C(c2ccccc2)NC(=O)NC1c1coc2cc3occc3cc2c1=O (stereo not given)	59.1%	13.1%	14.5 µM (≈ 6.25 µg/mL)	inactive

Structure (SMILES)	Activity [1]	Activity [2]	MIC [3]	Activity [4]
CCOC(=O)C1=C(C(F)(F)F)NC(=O)NC1c1coc2ccc(-c3ccccc3)cc2c1=O (stereo not given)	28.6%	31.3%	3.39 µM (≈ 1.55 µg/mL)	10.7%
COCCOC(=O)C1=C(C)NC(=O)NC1c1coc2c(ccc3occc32)c1=O (stereo not given)	61.2%	4.5%	31.4 µM (≈ 12.5 µg/mL)	8.4%
COCCOC(=O)C1=C(C)NC(=O)NC1c1coc2cc3occc3cc2c1=O (stereo not given)	37.6%	34.7%	31.4 µM (≈ 12.5 µg/mL)	34.7%
COCCOC(=O)C1=C(C)NC(=O)NC1c1coc2ccc(Br)cc2c1=O (stereo not given)	40.2%	29.9%	28.7 µM (≈ 12.5 µg/mL)	38.4%
CCOC(=O)C1=C(C)NC(=S)NC1c1coc2ccc(Br)cc2c1=O (stereo not given)	41.1%	43.5%	29.7 µM (≈ 12.6 µg/mL)	20%
CCOC(=O)C1=C(C(F)(F)F)NC(=O)NC1c1coc2cccc(C)c2c1=O (stereo not given)	61.3%	22%	3.91 µM (≈ 1.55 µg/mL)	35.9%
CCOC(=O)C1=C(c2ccccc2)NC(=O)NC1c1coc2ccccc2c1=O (stereo not given)	5.3%	15.4%	64.1 µM (≈ 25 µg/mL)	15%
COCCOC(=O)C1=C(C)NC(=O)NC1c1coc2ccccc2c1=O (stereo not given)	38.5%	23.5%	69.8 µM (≈ 25 µg/mL)	23.9%
CCOC(=O)C1=C(C)NC(=O)NC1c1coc2ccc([N+](=O)[O-])cc2c1=O (stereo not given)	54.4%	inactive	4.18 µM (≈ 1.56 µg/mL)	28.7%
CCOC(=O)C1=C(C)NC(=O)NC1c1coc2ccc(Br)cc2c1=O (stereo not given)	32.8%	51.4%	30.8 µM (≈ 12.5 µg/mL)	31.1%
CCOC(=O)C1=C(c2ccccc2)NC(=S)NC1c1coc2ccccc2c1=O (stereo not given)	33%	9.4%	61.6 µM (≈ 25 µg/mL)	1.9%
CCOC(=O)C1=C(C)NC(=O)NC1c1coc2ccc(-c3ccccc3)cc2c1=O (stereo not given)	45.3%	7.2%	30.7 µM (≈ 12.4 µg/mL)	inactive
CCOC(=O)C1=C(C)NC(=S)NC1c1coc2ccc(-c3ccccc3)cc2c1=O (stereo not given)	40.9%	37.4%	59.5 µM (≈ 25 µg/mL)	25.4%
CCOC(=O)C1=C(c2ccccc2)NC(=S)NC1c1coc2ccc(C)cc2c1=O (stereo not given)	31.5%	27.2%	14.9 µM (≈ 6.26 µg/mL)	12.1%
CCOC(=O)C1=C(C)NC(=S)NC1c1coc2ccc(C)cc2c1=O (stereo not given)	43.2%	18.3%	34.9 µM (≈ 12.5 µg/mL)	7%
CCOC(=O)C1=C(C(F)(F)F)NC(=O)NC1c1coc2cc3occc3cc2c1=O (stereo not given)	40.9%	21.8%	7.38 µM (≈ 3.12 µg/mL)	6.9%
COCCOC(=O)C1=C(C)NC(=O)NC1c1coc2ccc(C)cc2c1=O (stereo not given)	40.2%	28.4%	34.1 µM (≈ 12.7 µg/mL)	35.6%
NNC(=O)c1ccncc1 [ISONIAZID]			0.66 µM (≈ 0.0905 µg/mL)	
CCOC(=O)C1=C(C(F)(F)F)NC(=O)NC1c1coc2ccccc2c1=O (stereo not given)	29.2%	inactive	7.9 µM (≈ 3.02 µg/mL)	23.4%
CCOC(=O)C1=C(C)NC(=S)NC1c1coc2ccccc2c1=O (stereo not given)	49.3%	26.3%	72.7 µM (≈ 25 µg/mL)	32.7%
